Series [1] can be described thus: Cytotoxicity against HEK293T cells assessed as reduction in cell viability by MTT assay. The class given is toxicity, cell-based, HEK-293T. Conditions: human.
The test system of series [2] is Human immunodeficiency virus 1. Briefly: Antiviral activity against HIV1 VSV-G pseudotyped virus infected in human HEK293T cells assessed as inhibition of viral growth preincubated for 3 hrs followed by washout and further incubated with compound for 72 hrs by luciferase assay. In kind it is functional, organism-based. Conditions: Human immunodeficiency virus 1, HEK-293T.

A short description of series [3]: Selectivity index, ratio of CC50 for cytotoxicity against HEK293T cells assessed as reduction in cell viability by MTT assay to EC50 for antiviral activity against HIV1 VSV-G pseudotyped virus infected in human HEK293T cells assessed as inhibition of viral growth. In kind it is toxicity, cell-based. Particulars: read-out: Ratio CC50/EC50.
The subject of series [4] is Human immunodeficiency virus 1. Briefly: Antiviral activity against HIV1 4755-5 infected in human C8166 cells assessed as inhibition of viral replication by measuring reduction in p24 antigen level incubated for 3 to 7 days by ELISA analysis. The class given is functional, organism-based. Particulars: Human immunodeficiency virus 1, 4755-5, C8166.
For series [5], the system named is Human immunodeficiency virus 1. The series can be described thus: Antiviral activity against HIV1 KIZ001 infected in human PBMC assessed as inhibition of viral replication by measuring reduction in p24 antigen level incubated for 3 to 7 days by ELISA analysis. Conditions: Human immunodeficiency virus 1, KIZ001, PBMC. The class given is functional, organism-based.

In series [6] the test system is Human immunodeficiency virus 1. The series can be described thus: Antiviral activity against HIV1 IIIB infected in human C8166 cells assessed as inhibition of syncytia formation incubated for 3 to 7 days by syncytia assays. In kind it is functional, organism-based. Conditions: Human immunodeficiency virus 1, IIIB.
Series [7] concerns Human immunodeficiency virus 1. Briefly: Antiviral activity against HIV1 WAN infected in human PBMC assessed as inhibition of viral replication by measuring reduction in p24 antigen level incubated for 3 to 7 days by ELISA analysis. In kind it is functional, organism-based. Conditions: Human immunodeficiency virus 1, WAN.
Series [8] deals with Human immunodeficiency virus 1. The series can be described thus: Antiviral activity against HIV1 IIIB infected in human C8166 cells assessed as inhibition of viral replication by measuring reduction in p24 antigen level incubated for 3 to 7 days by ELISA analysis. In kind it is functional, organism-based. Particulars: Human immunodeficiency virus 1, IIIB.
In series [9] the test system is Human immunodeficiency virus 1. The series can be described thus: Antiviral activity against HIV-1 harboring integrase G140S/Q148H double mutant infected in human TZM-bl cells assessed as inhibition of viral replication incubated for 3 to 7 days by luciferase assay. The class given is functional, organism-based. Particulars: Human immunodeficiency virus 1, TZM-bl.

Series [10] concerns Human immunodeficiency virus 1. Briefly: Antiviral activity against HIV1 TC-1 infected in human PBMC assessed as inhibition of viral replication by measuring reduction in p24 antigen level incubated for 3 to 7 days by ELISA analysis. In kind it is functional, organism-based. Conditions: Human immunodeficiency virus 1, TC-1, PBMC.
Series [11] has as its system Human immunodeficiency virus 1. The series can be described thus: Antiviral activity against HIV1 IIIB infected in human MT4 cells assessed as inhibition of viral replication incubated for 3 to 7 days by MTT analysis. In kind it is functional, organism-based. Particulars: Human immunodeficiency virus 1, IIIB.

Each structure is given as a SMILES string.

Turning to `C#C[C@]1(CO)O[C@@H](n2cnc3c(N)ncnc32)[C@@H](F)[C@@H]1O`, the CC50 in series [1] stood at 56.5 µM. The EC50 in series [2] turned out to be 2.3 nM. For the same molecule, the selectivity ratio in [3] stood at 24600.
For the molecule `COc1nc(N)c2ncn([C@@H]3O[C@@](CO)(N=[N+]=[N-])[C@@H](O)[C@@H]3F)c2n1`, the CC50 in series [1] is greater than 100 µM. The concentration giving a half-maximal response (EC50) in [2] stood at 4.46 nM. In addition, the selectivity ratio in [3] was greater than 22400.
Regarding `Nc1ccn([C@@H]2CS[C@H](CO)O2)c(=O)n1` [LAMIVUDINE], the EC50 in series [4] is greater than 200 µM; in series [5], 73 nM; in series [2], 170 nM; in [6], 199 nM; in [7], 538 nM; in [8], 853 nM. For the same molecule, the values for the EC50 in series [9], in series [10] and in series [11] were 138 nM, 210 nM and 167 nM, respectively. For the same molecule, in series [1], the CC50 is greater than 100 µM. In addition, the selectivity ratio in [3] is greater than 588.
Take `[N-]=[N+]=N[C@]1(CO)O[C@@H](n2cnc3c(N)nc(F)nc32)[C@@H](F)[C@@H]1O`: the CC50 in series [1] was greater than 100 µM. Further, the concentration for a half-maximal effect (EC50) in [2] came out at 1.99 nM. Further, the selectivity ratio in [3] was greater than 50300.

The values are drawn from ChEMBL document CHEMBL5360641, “4'-Ethynyl-2'-deoxy-2'-β-fluoro-2-fluoroadenosine: A Highly Potent and Orally Available Clinical Candidate for the Treatment of HIV-1 Infection” (J Med Chem, 2023).
